Results as given in paper PMC10779086, “3-O-Methyltolcapone and Its Lipophilic Analogues Are Potent Inhibitors of Transthyretin Amyloidogenesis with High Permeability and Low Toxicity” (International Journal of Molecular Sciences, 2023).
“And” between values parts separate entries of the source, which are not always exact repeats. Equal values may be shown once. Read-outs that look alike come from different tables or passages of the source.

Key:
[1] = cited from earlier work
[2] = system: Caco-2 cells; conditions: expected value in brackets, cited from earlier work
[3] = system: Caco-2 cells; assay: Caco-2 intestinal permeability; type: in vitro ADME, human; conditions: reduction of efflux ratio by Elacridar 2 µM
Description: (§1) Caco-2 cells (cod. HTB-37) were bought from ATCC (American Type Culture Collection, Rockville, MD, USA). Caco-2 cells were cultured for 21 days on a 24 trans-well plate to reach the right confluence and differentiate until the formation of the intestinal epithelium mimetic monolayer. The test substance permeability was measured in both directions (apical to basolateral [A→B] and basolateral to apical [B→A]) across the cell monolayer. The assay was carried out in HBSS transport medium at pH 7.4. Test substance at single concentration (10 μM) was tested in duplicate at one time point (60 min). Monolayer integrity of Caco-2 cells was evaluated by TEER measurements during the experiment and by Lucifer Yellow test after the incubation with the test compound. The concentrations of the test substance and/or reference controls were measured by LC-MS/MS.
(§2) When the inhibitor leads the efflux ratio to a significant reduction (>50%) or to unity, the test compound is classified as a probable substrate of that efflux transporter. As control, the modulation of the efflux ratio of a reference known substrate (Digoxin) was evaluated with or without the respectively inhibitors in every experiment. […] In parallel, mass balance (%) of recovered test substance was also determined. […] Outside these ranges the permeability data is not reliable.

[4] = Caco-2 intestinal permeability; type: in vitro ADME, human; conditions: human; for recovery at 60 min: Caco-2, pH 7.4, with Elacridar 2 µM; for Papp A→B at 60 min, 10 μM / Papp B→A at 60 min, 10 μM: Caco-2, pH 7.4
Description: as §1, §2

[5] = Kinetic solubility in PBS; type: physicochemical; conditions: Phosphate Buffered Saline (PBS), aqueous buffer, kinetic from dmso stock, PBS pH 7.4, 1% DMSO
Description: (§3) The assay combines solubility and a non-cell-based Blood Brain Barrier permeability assay (Parallel Artificial Membrane Permeation Assay; PAMPA-BBB) into a single workflow in which a portion of the filtrate from the Solubility filter plate is added to the donor compartment of the MultiScreen filter plate for the PAMPA-BBB analysis. […] Solutions were filtered into a 96-well collection plate using vacuum filtration and then analysed by UV/Vis spectroscopy. The relative solubility was then calculated using the sum of the recorded values as compared to a standard calibration curve. […] PAMPA-BBB determination was carried out in a 96-well MultiScreen Permeability plate and the ability of a compound to diffuse from a Donor to an Acceptor compartment separated by a Porcine Brain Lipid Extract (PBLE) dissolved in dodecane (20 mg/mL) layer on a PVDF membrane support was measured. The assay was performed in duplicate in PBS at pH 7.4 and the analysis is carried out by UV/Vis spectroscopy.

[6] = molecular target: TTR (Homo sapiens, UniProt P02766); assay: Isothermal titration calorimetry (ITC), one-binding-site model; parameters: made in house; host or cells: E. coli BL21; conditions: single-binding-site model, 25 °C
Description: At an absorbance value of 600 nm around 0.3, the temperature was shifted to 30 °C.
Data were fitted using the “one-binding-site model” of the Malvern version of ORIGIN v.7. The heat of binding (ΔH), the stoichiometry (n), entropy (ΔS) and the dissociation constant (Kd) were then calculated from plots of the heat evolved per mole of ligand injected versus the molar ratio of ligand to protein using the software provided by the vendor (Table 3). Sample preparation is detailed below. […] A 10 µM protein stock in 2× buffer was then prepared and diluted 1:1 with a 10% DMSO solution, to obtain a 5 µM TTR solution in 1× buffer A and 5% DMSO. Different protein concentrations (3–5 µM) assayed in the replicates were prepared accordingly, starting from a 2× protein solution in 2× buffer A. Each ligand was dissolved in 100% DMSO and a 2 mM stock solution in 100% DMSO was prepared. A 200 µM compound solution was obtained in 10% DMSO and diluted 1:1 with 2× buffer A, to obtain a 100 µM ligand solution to be used for the ITC assays (in 1× buffer A and 5% DMSO).

[7] = Blood-brain barrier permeability (PAMPA-BBB); type: in vitro ADME
Description: as §3
The compounds are classified into 2 types: CNS+ compounds that can cross the BBB and CNS- compounds that cannot according to the Pe values (BBB−, Pe < 2 × 10^−6 cm/s; BBB +/−, 2 × 10^−6 cm/s < Pe < 4 × 10^−6 cm/s; BBB+, Pe > 4 × 10^−6 cm/s).
Membrane retention is also evaluated according to Equation (1), (1) 1−Rm=CAccVAcc+CDonorVDonor/Sol×VDonor where Rm is the membrane retention factor. 1 − Rm between 1.2 and 0.8 is considered fully acceptable for the reliability of the results.

[8] = system: HepG2 human liver cancer cell line; assay: Cytotoxicity in HepG2 cells (ATP viability assay); type: cell-based; conditions: 48 h
Description: Compounds were dissolved at the concentration of 50 mM in DMSO.
DMSO normalisation at 1.0% was performed in each well.
(§4) Cell viability was evaluated by measuring ATP levels using CellTiter Glo (Promega Cat.n. G7570) according to manufacturer’s instructions.

[9] = system: SH-SY5Y neuroblastoma human cell line; assay: Cytotoxicity in SH-SY5Y cells (ATP viability assay); type: cell-based; conditions: 48 h
Description: The neuroblastoma cell line SHSY-5Y (ATCC CRL2266) was cultured in EMEM ATCC medium supplemented with 10% FBS (Euroclone CAT No. ECS0180D), 100 units/mL penicillin, and 100 ug/mL streptomycin sulphate (Euroclone CAT No. ECB3001). Cells were grown at 37 °C in an atmosphere of 5% CO2 and plated at 10,000 cells/well in a 96-well plate (Corning Cat. N. 3610). The compounds were dissolved at a concentration of 10 mM in DMSO. Cells were stimulated for 48 h at 37 °C with serial dilutions of the compounds at the following concentrations: 0.1, 1, 10, 50, 100, and 200 μM and dispensed with an HP Dispenser (Tecan), as triplicates for each concentration. DMSO normalisation at 1.5% was performed in each well.
as §4

[10] = molecular target: TTR; conditions: sequential model, cited from earlier work
[11] = Chromatographic Hydrophobicity Index (CHI); type: physicochemical
From the text: The assay is a chromatographic fast gradient reversed-phase method which allows to characterize the lipophilicity of compounds in high throughput screening regime at three different pH values (2.0; 7.4; 10.5). The so defined CHI is obtained from the gradient (buffer/Acetonitrile) retention time after calibrating the chromatographic system with a test mixture of ten known standard compounds. For most compounds, CHI is between 0 and 100 and it approximates the percentage (by volume) of acetonitrile required to achieve an equal distribution of compound between the mobile and the lipophilic stationary phase of a C18 chromatographic column. Compounds that are not retained on the column are assigned to a CHI value < 0, which means very low lipophilicity. For highly lipophilic compounds, which are strongly retained by the column, a CHI value of >100 is assigned. For any value in between, the actual CHI value is calculated based on the calibration line of the reference compounds [49].

Row | Compound | recovery at 60 min, 10 µM ([4]; Caco-2, pH 7.4, A→B) [%] | recovery at 60 min, 10 µM ([4]; Caco-2, pH 7.4, B→A) [%] | Papp A→B at 60 min, 10 μM [4] [nm/s] | Papp B→A at 60 min, 10 μM [4] [nm/s] | n (stoichiometry of binding, ligand:TTR tetramer) [6] | Papp [Expected Values] ([2]; A→B) | solubility [5] [µM] | ∆H [6] | other results
1 | Cn1c(=O)c2c(ncn2C)n(C)c1=O [Caffeine, caffeine] | – | – | – | – | – | – | – | – | CNS Class [Expected Values] ([1]; expected class in brackets): CNS− [CNS−] (BBB−, Pe < 2 × 10^−6 cm/s); BBB-Pe [Expected Values] ([1]; expected value in brackets): 1.3 10^−6 cm/s
2 | C[C@H]1O[C@@H](O[C@H]2[C@@H](O)C[C@H](O[C@H]3[C@@H](O)C[C@H](O[C@H]4CC[C@@]5(C)[C@H](CC[C@@H]6[C@@H]5C[C@@H](O)[C@]5(C)[C@@H](C7=CC(=O)OC7)CC[C@]65O)C4)O[C@@H]3C)O[C@@H]2C)C[C@H](O)[C@@H]1O [Digoxin, reference compound] | 67 ± 5 | 71 ± 6 | 2 ± 1 | 141 ± 26 | – | 2 nm/s | – | – | Papp [Expected Values] ([2]; B→A): 139 nm/s; Efflux Ratio (Reduction %) [3]: 96%; recovery at 60 min ([4]; A→B + Elacridar 2 µM): 72 ± 1%; recovery at 60 min ([4]; B→A + Elacridar 2 µM): 75 ± 3%; efflux ratio at 60 min, 10 μM ([4]; Caco-2, pH 7.4, without inhibitor, read-out: Efflux Ratio (Papp BA/Papp AB)): > 10
3 | COCCc1ccc(OCC(O)CNC(C)C)cc1 (stereo not shown) [Metoprolol, reference compound] | 105 ± 5 | – | > 400 | – | – | >400 [>400] nm/s | – | – | –
4 | Cn1c(=O)c2[nH]cnc2n(C)c1=O [Theophylline, theophylline, reference compound] | – | – | – | – | – | – | > 500 | – | –

More lines, main results first:

Row | recovery at 60 min, 10 µM ([4]; Caco-2, pH 7.4, A→B) [%] | recovery at 60 min, 10 µM ([4]; Caco-2, pH 7.4, B→A) [%] | Papp A→B at 60 min, 10 μM [4] [nm/s] | Papp B→A at 60 min, 10 μM [4] [nm/s] | n (stoichiometry of binding, ligand:TTR tetramer) [6] | Compound | Papp [Expected Values] ([2]; A→B) | solubility [5] [µM] | ∆H [6] | other results
5 | – | – | – | – | 2.4 ± 0.1 | O=C(O)c1ccc2nc(-c3cc(Cl)cc(Cl)c3)oc2c1 [tafamidis, reference compound] | – | – | -13.4 kJ/mol and -13.4 ± 1.3 kJ/mol | –
6 | 53 ± 1 | 70 ± 4 | 101 ± 12 | 206 ± 58 | 2.0 ± 0.1 | Cc1ccc(C(=O)c2cc(O)c(O)c([N+](=O)[O-])c2)cc1 [tolcapone] | – | > 500 | -49.4 kJ/mol and -49.4 ± 2.1 kJ/mol | 1-Rm (membrane retention) [7]: 0.9; Papp ([7]; PBS pH 7.4, read-out: BBB-Pe): 56 nm/s; CNS Class ([7]; classified by Pe): CNS+ (BBB+, Pe > 4 × 10^−6 cm/s); EC50 [8]: 17.5 ± 2.4 µM; EC50 [9]: 29.8 ± 1.1 µM; Kd ([10]; read-out: Kd′ (first binding site)): 0.021 µM; Kd ([10]; read-out: Kd″ (second binding site)): 0.058 µM; CHI (pH 2.0) ([11]; pH 2.0): 78.2; CHI (pH 10.5) ([11]; pH 10.5): 49.3
